Earlier results as cited in patent US7863316B2, “Extended release formulation of Levetiracetam” (UCB Pharma S.A., priority 2005, dated 2011).

How the values were obtained:
[1] = three different pH media, immediate release tablet
[2] = not given; remark: listed apart in the source

time to steady state kinetics (after multiple twice daily dosing): 2 days
bound to plasma proteins (in vivo): less than 10%
renal clearance (in vivo): 0.6 mL/min/kg
total body clearance (in vivo): 0.9 mL/min/kg
volume of distribution (in vivo): 0.6 L/kg
decrease of cmax by food (with food): 20%
delay of Tmax by food (with food): 1.5 h
tablet amount released in 15 minutes [1]: > 85%
solubility in acetonitrile ([2]; acetonitrile): 5.7 g/100 mL
solubility in chloroform ([2]; chloroform): 65.3 g/100 mL
solubility in ethanol ([2]; ethanol): 16.5 g/100 mL
solubility in methanol ([2]; methanol): 53.6 g/100 mL
solubility in n-hexane ([2]; n-hexane): practically insoluble
aqueous solubility ([2]; water): 104 g/100 mL
SMILES: CC[C@@H](C(N)=O)N1CCCC1=O [Levetiracetam, (−)-(S)-α-ethyl-2-oxo-1-pyrrolidine acetamide]
